Measurements taken from article PMC9516332 (Frontiers in Oncology, 2022).

How the values were obtained:
Assay in all cases: Kinase panel profiling at 1 µmol/L (MSA or IMAP), percentage inhibition
Assay type in all cases: biochemical
[1] = biological target: panel of 255 wild-type kinases (Homo sapiens, UniProt Q86V86); details: kinase PIM3; 1 µmol/L single concentration; read-out: %-inhibition at 1 µmol/L, PIM3
[2] = biological target: panel of 255 wild-type kinases (Homo sapiens, UniProt P23443); details: p70S6K; 1 µmol/L single concentration; read-out: %-inhibition, p70S6K
[3] = biological target: panel of 255 wild-type kinases (Homo sapiens, UniProt Q13555); details: CaMK2γ kinase assay; 1 µmol/L single concentration; read-out: %-inhibition CaMK2γ
[4] = biological target: T1, panel of 255 wild-type kinases (Homo sapiens, UniProt Q9UHD2); details: kinase TBK1; 1 µmol/L single concentration; read-out: %-inhibition at 1 µmol/L, TBK1
T1 sequence (Q9UHD2 1-729): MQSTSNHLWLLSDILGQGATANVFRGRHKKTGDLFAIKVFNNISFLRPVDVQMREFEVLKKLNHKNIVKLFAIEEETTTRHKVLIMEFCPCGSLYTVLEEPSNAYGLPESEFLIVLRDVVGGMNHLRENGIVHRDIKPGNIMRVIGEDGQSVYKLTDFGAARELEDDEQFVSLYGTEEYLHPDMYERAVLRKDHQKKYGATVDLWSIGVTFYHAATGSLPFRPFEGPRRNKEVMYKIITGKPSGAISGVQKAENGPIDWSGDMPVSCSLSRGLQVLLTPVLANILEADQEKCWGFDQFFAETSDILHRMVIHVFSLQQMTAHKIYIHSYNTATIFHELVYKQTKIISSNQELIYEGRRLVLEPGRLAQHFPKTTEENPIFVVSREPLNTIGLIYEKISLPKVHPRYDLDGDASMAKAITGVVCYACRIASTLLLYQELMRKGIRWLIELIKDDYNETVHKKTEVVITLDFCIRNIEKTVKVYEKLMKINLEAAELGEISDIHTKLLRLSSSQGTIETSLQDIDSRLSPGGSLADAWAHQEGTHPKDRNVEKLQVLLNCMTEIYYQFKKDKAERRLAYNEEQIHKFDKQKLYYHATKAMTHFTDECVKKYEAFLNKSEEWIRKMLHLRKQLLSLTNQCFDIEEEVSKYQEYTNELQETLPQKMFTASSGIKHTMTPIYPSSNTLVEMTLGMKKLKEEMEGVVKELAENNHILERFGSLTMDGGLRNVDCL

[5] = biological target: panel of 255 wild-type kinases (Homo sapiens, UniProt Q16512); details: kinase PKN1; 1 µmol/L single concentration; read-out: %-inhibition at 1 µmol/L, PKN1
[6] = biological target: T2, panel of 255 wild-type kinases (Homo sapiens, UniProt P51955); details: NEK2; 1 µmol/L single concentration; read-out: %-inhibition, NEK2
T2 sequence (P51955 1-445): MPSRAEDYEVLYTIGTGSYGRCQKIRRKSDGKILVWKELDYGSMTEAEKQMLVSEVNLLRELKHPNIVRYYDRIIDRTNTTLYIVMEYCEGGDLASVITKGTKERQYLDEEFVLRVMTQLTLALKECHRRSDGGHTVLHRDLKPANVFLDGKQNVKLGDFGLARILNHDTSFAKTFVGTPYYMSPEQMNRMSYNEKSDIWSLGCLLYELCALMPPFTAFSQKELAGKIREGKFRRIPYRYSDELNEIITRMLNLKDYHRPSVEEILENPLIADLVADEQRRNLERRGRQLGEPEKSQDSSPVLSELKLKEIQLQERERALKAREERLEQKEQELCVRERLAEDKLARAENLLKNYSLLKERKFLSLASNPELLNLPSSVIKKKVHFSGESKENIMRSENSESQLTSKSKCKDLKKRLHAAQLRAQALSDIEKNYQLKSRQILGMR

[7] = biological target: panel of 255 wild-type kinases (Homo sapiens, UniProt P11362); details: kinase FGFR1; 1 µmol/L single concentration; read-out: %-inhibition at 1 µmol/L, FGFR1
[8] = biological target: T3, panel of 255 wild-type kinases (Homo sapiens, UniProt O15111); details: kinase IKKα; 1 µmol/L single concentration; read-out: %-inhibition at 1 µmol/L, IKKα
T3 sequence (O15111 1-745): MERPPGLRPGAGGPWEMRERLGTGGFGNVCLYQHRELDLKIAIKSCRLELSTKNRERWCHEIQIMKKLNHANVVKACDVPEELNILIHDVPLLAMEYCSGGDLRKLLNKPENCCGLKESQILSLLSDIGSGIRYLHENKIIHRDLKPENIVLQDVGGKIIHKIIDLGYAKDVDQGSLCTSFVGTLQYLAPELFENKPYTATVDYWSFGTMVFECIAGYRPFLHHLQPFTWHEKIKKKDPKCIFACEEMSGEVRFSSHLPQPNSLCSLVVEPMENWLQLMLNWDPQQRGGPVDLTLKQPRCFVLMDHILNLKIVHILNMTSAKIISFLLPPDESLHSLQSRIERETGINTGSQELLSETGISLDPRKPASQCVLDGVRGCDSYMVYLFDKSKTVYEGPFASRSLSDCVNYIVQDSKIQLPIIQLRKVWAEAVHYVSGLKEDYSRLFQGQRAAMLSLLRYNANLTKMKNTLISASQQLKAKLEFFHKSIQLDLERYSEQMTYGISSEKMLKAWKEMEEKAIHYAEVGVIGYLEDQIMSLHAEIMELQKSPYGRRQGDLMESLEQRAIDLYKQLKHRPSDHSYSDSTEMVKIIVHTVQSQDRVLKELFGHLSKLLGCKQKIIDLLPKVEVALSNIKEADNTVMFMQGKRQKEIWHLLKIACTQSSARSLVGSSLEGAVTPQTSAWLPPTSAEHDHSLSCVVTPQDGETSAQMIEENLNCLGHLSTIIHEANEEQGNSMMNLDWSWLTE

Compound | inhibition at 1 µM [1] [%] | inhibition at 1 µM [2] [%] | inhibition at 1 µM [3] [%] | inhibition at 1 µM [4] [%] | inhibition at 1 µM [5] [%] | inhibition at 1 µM [6] [%] | inhibition at 1 µM [7] [%] | inhibition at 1 µM [8] [%]
CN1CCN(c2ccc(C(=O)Nc3n[nH]c4ccc(Cc5cc(F)cc(F)c5)cc34)c(NC3CCOCC3)c2)CC1 [entrectinib] | -10 | 25 | 17 | 8 | 64 | 11 | 90 | 8
COc1cc2ncnc(Nc3ccc(F)c(Cl)c3)c2cc1NC(=O)/C=C/CN1CCCCC1 [dacomitinib] | 23 | 33 | 2.37 | 17 | 16 | -2.41 | 8 | 10
Cn1cc(-c2cc3c(N4CCN(c5ncc([C@@](C)(N)c6ccc(F)cc6)cn5)CC4)ncnn3c2)cn1 [avapritinib] | 9 | 20 | -4 | -1.13 | 19 | 9 | 41 | 2.41
CCn1c(=O)c(-c2cc(NC(=O)Nc3ccccc3)c(F)cc2Br)cc2cnc(NC)cc21 [ripretinib] | 1.11 | 64 | 0.397 | 0.403 | 10 | -0.18 | 92 | 1.08
